{
  "source": "patent US20150064107A1",
  "about": "“IMAGING AGENT” (King's College London, priority 2013, published 2015)",
  "key": {"[1]": {"test": "Ex vivo fluorescent imaging of excised popliteal lymph nodes under 980 nm laser", "type": "in vivo, mouse (C57BL/6)", "conditions": "multi-photon laser scanning microscope", "procedure": "To further explore the potential value of these NPIAs, a more detailed lymph node study by PET/MRI imaging was undertaken, investigating the popliteal LN in response to an acute inflammatory stimulus in the foot. A solution of ^18F-labelled Fe3O4@NaYF4(Yb, Tm)-BP-PEG (20 μL, 4.5 MBq, 20 μg Fe) was injected into each of the two rear footpads of a female C57BL/6 mouse in which only the right leg was inflamed. […] A control experiment was carried out with [^18F]-fluoride but without NPs Fe3O4@NaYF4(Yb, Tm)-BP-PEG, under the same conditions. […] By MRI scanning prior to injection of the labellend NPs, no contrast difference was seen on MR images between the normal LN and the inflamed one. The popliteal lymph nodes on the inflamed side were dissected and viewed, together with the adjacent fatty tissue, with a Femtonics (Budapest, Hungary) Fem2D in vivo multi-photon laser scanning microscope under excitation of a 980 nm laser. […] Fluorescent NPIAs were also found inside cells of adjacent fat tissue of the inflamed popliteal LN."}, "[2]": {"test": "In vivo PET/MRI imaging of the lymph node system after footpad injection", "set-up": "species or system mouse (C57BL/6)", "conditions": "mouse, 6 hours post injection", "procedure": "In vivo PET/MRI imaging of the lymph node (LN) system was carried out using a preclinical nanoScan® PET•MRI scanner with 1 T magnetic field (Mediso Ltd, H-1047, Budapest, Hungary), utilising ^18F-labelled CoxFe3-xO4@NaYF4(Yb, Er)-BP-PEG (10 K) or ^18F-labelled Fe3O4@NaYF4(Yb, Tm)-BP-PEG (2 K) NPIAs as probes. After injection of 20 μL of [^18F]-fluoride-labelled CoxFe3-xO4@NaYF4(Yb, Er)-BP-PEG solution containing 6.3 MBq radioactivity and 20 μg Fe into the rear right foot pad of a mouse (C57BL/6, female, 6-7 weeks old, 20 g), coregistered PET and MRI images were recorded 6 hours post injection. The most prominent signal was from the popliteal LN, which is the nearest draining LN from the injection point, and the next most prominent signal was from the medial iliac LN (FIG. 5a, 5c & 5d).\nTo further explore the potential value of these NPIAs, a more detailed lymph node study by PET/MRI imaging was undertaken, investigating the popliteal LN in response to an acute inflammatory stimulus in the foot. A solution of ^18F-labelled Fe3O4@NaYF4(Yb, Tm)-BP-PEG (20 μL, 4.5 MBq, 20 μg Fe) was injected into each of the two rear footpads of a female C57BL/6 mouse in which only the right leg was inflamed. […] A control experiment was carried out with [^18F]-fluoride but without NPs Fe3O4@NaYF4(Yb, Tm)-BP-PEG, under the same conditions. […]"}},
  "note": "Entries after “also recorded” stand apart in the source; their conditions may differ.",
  "data": [
    {"substance": "[^18F]-fluoride", "values": [
      {"measurement": "fluorescence of excised inflamed popliteal lymph node", "setting": "[1]", "result": "faint granular fluorescence"},
      {"measurement": "lymph node signal on PET (and MRI) images", "setting": "[2]", "result": "no contrast in lymph nodes; also recorded: did not show any signal at the lymph nodes"}
    ]}
  ]
}
